Measured values: PubChem BioAssay AID328 (DTP/NCI, 2004)
Values joined by “and” are separate entries in the source; they are usually repeats but may differ in a detail not shown here. Equal values may be shown once. Inconclusive results and toxic doses are left out. How the source made its calls: active means survival T/C of 150% or more; inactive means T/C below 125% in these data.

System: BDF1 mice, P388 leukemia ip, median survival T/C
Experiment: NCI In Vivo Anticancer Drug Screen. Data for tumor model P388 Leukemia (intraperitoneal) in B6D2F1 (BDF1) mice
Details: endpoint: median survival time, higher = longer survival
How it was run: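 T/C = treated-group survival ÷ vehicle-control survival; tumour transplanted into mice before dosing.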

[1] = dose: 100.0 mg/kg/injection, schedule: Q01DX009 (ip), vehicle: Klucel (hydroxypropylcellulose) (HPC)
[2] = dose: 100.0 mg/kg/injection, schedule: Q04DX003 (ip), vehicle: Klucel (hydroxypropylcellulose) (HPC)
[3] = dose: 200.0 mg/kg/injection, schedule: Q01DX009 (ip), vehicle: Klucel (hydroxypropylcellulose) (HPC)
[4] = dose: 200.0 mg/kg/injection, schedule: Q04DX003 (ip), vehicle: Klucel (hydroxypropylcellulose) (HPC)
[5] = dose: 400.0 mg/kg/injection, schedule: Q04DX003 (ip), vehicle: Klucel (hydroxypropylcellulose) (HPC)
[6] = dose: 100.0 mg/kg/injection, schedule: Q04DX003 (ip), vehicle: saline
[7] = dose: 200.0 mg/kg/injection, schedule: Q04DX003 (ip), vehicle: saline
[8] = dose: 6.25 mg/kg/injection, schedule: Q01DX009 (ip), vehicle: saline with Tween-80
[9] = dose: 12.5 mg/kg/injection, schedule: Q04DX003 (ip), vehicle: saline with Tween-80
[10] = dose: 25.0 mg/kg/injection, schedule: Q04DX003 (ip), vehicle: saline with Tween-80
[11] = dose: 50.0 mg/kg/injection, schedule: Q01DX009 (ip), vehicle: saline with Tween-80
[12] = dose: 100.0 mg/kg/injection, schedule: Q01DX009 (ip), vehicle: saline with Tween-80
[13] = dose: 100.0 mg/kg/injection, schedule: Q04DX003 (ip), vehicle: saline with Tween-80
[14] = dose: 200.0 mg/kg/injection, schedule: Q04DX003 (ip), vehicle: saline with Tween-80
[15] = dose: 400.0 mg/kg/injection, schedule: Q04DX003 (ip), vehicle: saline with Tween-80
[16] = dose: 12.5 mg/kg/injection, schedule: Q04DX003 (ip), vehicle: water
[17] = dose: 25.0 mg/kg/injection, schedule: Q04DX003 (ip), vehicle: water
[18] = dose: 50.0 mg/kg/injection, schedule: Q04DX003 (ip), vehicle: water
[19] = dose: 100.0 mg/kg/injection, schedule: Q04DX003 (ip), vehicle: water
[20] = dose: 200.0 mg/kg/injection, schedule: Q04DX003 (ip), vehicle: water
[21] = dose: 200.0 mg/kg/injection, schedule: Q01DX009 (ip), vehicle: saline with Tween-80

Measured: T/C

O=[N+]([O-])c1ccc(S(=O)c2ccc([N+](=O)[O-])cc2)cc1
inactive: [1] 100 % of control | [2] 100 % of control | [3] 95 % of control | [4] 100 % of control | [5] 100 % of control

Cc1ccc(N=Nc2nc3nc(N)[nH]c(=O)c3[nH]2)cc1
inactive: dose: 50.0 mg/kg/injection, schedule: Q01DX005 (ip), vehicle: saline with Tween-80 100 % of control | dose: 100.0 mg/kg/injection, schedule: Q01DX005 (ip), vehicle: saline with Tween-80 105 % of control | dose: 200.0 mg/kg/injection, schedule: Q01DX005 (ip), vehicle: saline with Tween-80 87 % of control

CC1=NC(C(=O)O)C(=O)O1 (stereo not drawn)
inactive: dose: 50.0 mg/kg/injection, schedule: Q01DX009 (ip), vehicle: saline 109 % of control | dose: 100.0 mg/kg/injection, schedule: Q01DX009 (ip), vehicle: saline 104 % of control | [6] 95 % of control | dose: 200.0 mg/kg/injection, schedule: Q01DX009 (ip), vehicle: saline 100 % of control | [7] 100 % of control | dose: 400.0 mg/kg/injection, schedule: Q04DX003 (ip), vehicle: saline 87 % of control

CCCCOc1ccc(C(=O)NN)cc1
inactive: [8] 118 % of control | dose: 6.25 mg/kg/injection, schedule: Q04DX003 (ip), vehicle: saline with Tween-80 100 % of control | dose: 12.5 mg/kg/injection, schedule: Q01DX009 (ip), vehicle: saline with Tween-80 108 % of control | [9] 91 % of control and 92 % of control | dose: 25.0 mg/kg/injection, schedule: Q01DX009 (ip), vehicle: saline with Tween-80 99 % of control | [10] 90 % of control and 106 % of control | [11] 115 % of control | dose: 50.0 mg/kg/injection, schedule: Q04DX003 (ip), vehicle: saline with Tween-80 97 % of control and 98 % of control | [12] 97 % of control

COc1cc(OC)c(OC)cc1/C=C/c1ccc2ccccc2n1
inactive: [13] 100 % of control | [14] 88 % of control | [15] 88 % of control

Cc1cn(C)c2nccnc12
inactive: dose: 12.5 mg/kg/injection, schedule: Q01DX009 (ip), vehicle: water 100 % of control | [16] 102 % of control | dose: 25.0 mg/kg/injection, schedule: Q01DX009 (ip), vehicle: water 107 % of control | [17] 96 % of control | dose: 50.0 mg/kg/injection, schedule: Q01DX009 (ip), vehicle: water 98 % of control | [18] 112 % of control | dose: 100.0 mg/kg/injection, schedule: Q01DX009 (ip), vehicle: water 100 % of control | [19] 117 % of control | dose: 200.0 mg/kg/injection, schedule: Q01DX009 (ip), vehicle: water 104 % of control | [20] 98 % of control | dose: 300.0 mg/kg/injection, schedule: Q04DX003 (ip), vehicle: water 94 % of control

O=C(Nc1nc(Cl)nc(Cl)n1)N1CCOCC1
inactive: [8] 104 % of control | dose: 9.0 mg/kg/injection, schedule: Q01DX009 (ip), vehicle: saline with Tween-80 103 % of control | dose: 12.0 mg/kg/injection, schedule: Q01DX009 (ip), vehicle: saline with Tween-80 112 % of control | [9] 118 % of control | dose: 18.0 mg/kg/injection, schedule: Q01DX009 (ip), vehicle: saline with Tween-80 112 % of control | [10] 109 % of control

CC1=NN(c2ccccc2)C(=O)C1=Nc1c(C)[nH]n(-c2ccccc2)c1=O
inactive: dose: 30.0 mg/kg/injection, schedule: Q01DX009 (ip), vehicle: saline with Tween-80 96 % of control | dose: 60.0 mg/kg/injection, schedule: Q01DX009 (ip), vehicle: saline with Tween-80 91 % of control

N#C/C1=C(\N)CCCOCCCOCCCOCCCOCCCOCC1
inactive: [6] 97 % of control | [7] 92 % of control

C=C(Cl)c1c(C)cc(C)c(CC#N)c1C
inactive: dose: 12.5 mg/kg/injection, schedule: Q04DX003 (ip), vehicle: DMSO 100 % of control | dose: 25.0 mg/kg/injection, schedule: Q04DX003 (ip), vehicle: DMSO 113 % of control | dose: 50.0 mg/kg/injection, schedule: Q04DX003 (ip), vehicle: DMSO 100 % of control

CN(C)CC(=O)N/N=C\c1ccc([N+](=O)[O-])s1
inactive: dose: 25.0 mg/kg/injection, schedule: Q04DX003 (ip), vehicle: saline 87 % of control | dose: 50.0 mg/kg/injection, schedule: Q04DX003 (ip), vehicle: saline 87 % of control | [6] 91 % of control

CCc1nnc2sc3c(Cl)c4nn5c(CC)nnc5sc4c(Cl)c3nn12
inactive: [11] 114 % of control | [12] 118 % of control | [21] 98 % of control

CCN(C(=S)Nc1cccc(OC)c1)c1ccccc1
inactive: [11] 101 % of control | [12] 99 % of control | [21] 101 % of control

O=C1Nc2ccc(Br)cc2C1=Nc1cccnc1
inactive: [11] 100 % of control | [12] 104 % of control | [21] 111 % of control | dose: 400.0 mg/kg/injection, schedule: Q01DX009 (ip), vehicle: saline with Tween-80 111 % of control

CCOC(=O)CCN(CCC(=O)OCC)C(C)C
inactive: [13] 100 % of control | [14] 100 % of control | [15] 100 % of control

CC(=O)NC(O)C(Cl)(Cl)Cl (stereo not drawn)
inactive: dose: 100.0 mg/kg/injection, schedule: Q04DX003 (ip), vehicle: saline sonified 91 % of control | dose: 200.0 mg/kg/injection, schedule: Q04DX003 (ip), vehicle: saline sonified 108 % of control | dose: 400.0 mg/kg/injection, schedule: Q04DX003 (ip), vehicle: saline sonified 100 % of control

O=C(OC(c1ccccc1)(C(F)(F)F)C(F)(F)F)c1cccc(Cl)c1
inactive: [11] 104 % of control | [12] 109 % of control | [21] 118 % of control

COP(=O)(O)C(Cc1ccccc1)NC(=O)OCc1ccccc1 (stereo not drawn)
inactive: dose: 25.0 mg/kg/injection, schedule: Q01DX005 (ip), vehicle: distilled water + Tween-80 100 % of control | dose: 50.0 mg/kg/injection, schedule: Q01DX005 (ip), vehicle: distilled water + Tween-80 100 % of control | dose: 100.0 mg/kg/injection, schedule: Q01DX005 (ip), vehicle: distilled water + Tween-80 94 % of control

CCOC(=O)CC(=Nc1ccccc1OC)C(=O)OCC
inactive: [1] 86 % of control | [2] 104 % of control | [3] 86 % of control | [4] 95 % of control | dose: 400.0 mg/kg/injection, schedule: Q01DX009 (ip), vehicle: Klucel (hydroxypropylcellulose) (HPC) 104 % of control | [5] 95 % of control

O=[N+]([O-])C(Br)(c1ccccc1)S(=O)(=O)Cc1ccccc1 (stereo not drawn)
inactive: [2] 104 % of control | [4] 108 % of control | [5] 108 % of control

O=C(CCNC(=O)OCc1ccccc1)NC(CSCc1ccccc1)C(=O)O (stereo not drawn)
inactive: [16] 112 % of control | [17] 118 % of control | [18] 114 % of control | [19] 105 % of control | [20] 103 % of control

CSc1cccc(NC(=O)N2CCN(c3ccccc3)CC2)c1
inactive: dose: 12.5 mg/kg/injection, schedule: Q01DX009 (ip), vehicle: DMSO 93 % of control | dose: 25.0 mg/kg/injection, schedule: Q01DX009 (ip), vehicle: DMSO 94 % of control

CN1C(=O)C(Br)=C(c2cccs2)C1=O
inactive: dose: 25.0 mg/kg/injection, schedule: Q01DX001 (ip), vehicle: saline with Tween-80 109 % of control | dose: 50.0 mg/kg/injection, schedule: Q01DX001 (ip), vehicle: saline with Tween-80 103 % of control
